Experimental data from patent EP0316592A2, “3'-Fluoro-2',3'-dideoxyuridine, and its therapeutic application” (Stichting REGA V.Z.W., priority 1987, dated 1989).
Several values for one entry are separate records, joined by “and”; a condition that tells them apart may be missing. Equal entries are not always repeated. Where two headings read alike, the source gives them in different places.

Legend:
[1] = tested on: HIV; assay: Inhibition of HIV-induced cytopathogenicity in MT4 cells; type: cell-based; conditions: for EC50: 50% reduction in the cytopathic effect of HIV for MT4 cells, 5 days, read-out: HIV-induced cyto-pathogenicity ED50; for HIV-induced cyto-pathogenicity S.I.: Selectivity index or ratio of CD50 to ED50, MT4 cells
Procedure: HTLV-IIIB (designated HIV) was derived from a pool of American patients with AIDS, and obtained from the supernatant of HIV-infected H9 cell cultures (see M. Popovic et al, Science 224, 497-500 (1984)).
FddUrd, the unsubstituted analogue and other 3′-fluoro- and 3′-azido-substituted analogues were evaluated for their inhibitory effects on HIV-induced cytopathogenicity in MT4 cells (Table 1, fig. 2).

[2] = tested on: MT4 cells; assay: Cytotoxicity for non-infected MT4 cells (viable cell count)
Procedure: Then 100 µl of the infected cell suspension was added to 100 µl of an appropriate dilution of test compound in 200 µ1 wells of a Flat Bottom Microtest III Plate (Falcon, Becton Dickinson, Oxnard, CA, USA) (i.e. 40 CCID₅₀ HIV/200 µ1 well/5 x 10⁴ cells), and further incubated at 37°C in a CO₂-controlled humidified atmosphere.

[3] = tested on: Moloney murine sarcoma virus (MSV); assay: Inhibition of transformation of C3H cells by MSV; type: cell-based; conditions: for EC50: Moloney murine sarcoma virus, 144 h, 50% reduction of transformation of C3H cells by MSV, 6 days, read-out: MSV-induced cyto-pathogenicity ED50; for MSV-induced cyto-pathogenicity S.I.: Selectivity index or ratio of CD50 to ED50, C3H cells
Procedure: Moloney murine sarcoma virus (MSV) was prepared from tumors induced by in vivo infection of 10 day-old NMRI mice according to the procedure described by De Clercq et al (Proc. Soc. Exp. Biol. Med. 137, 590-594 (1971)).
ddUrd and the substituted pymiridine 2′,3′-dideoxynucleoside analogues were examined for their inhibitory effect on the transformation of mouse embryo C3H fibroblasts by Moloney murine sarcoma virus (MSV).
C3H cells were seeded at 20,000 cells per ml into wells of Costar Tissue Culture Cluster plates (48 wells per plate) and grown to confluency. Cell cultures were then infected by 150 foci-forming units of MSV during 90 min, whereafter the culture medium was replaced by 1 ml fresh medium containing different concentrations of the test compound. After 6 days, the transformation of the cell cultures was examined microscopically.

[4] = tested on: MOLT/4F CELL DNA; assay: Incorporation of radiolabelled precursors into Molt/4F cell DNA; type: cell-based, human; conditions: for IC50: Homo sapiens, Molt/4F cell DNA, 20-24 hours; for stimulatory effect on (5-3H)dCyd incorporation into DNA: as compared to the control
Procedure: The impact of ddUrd and the 3′-fluoro- and 3′-azido-substituted pyrimidine 2′,3′-dideoxynucleoside analogues on cellular DNA biosynthesis was evaluated by monitoring the effect of these compounds on the incorporation of radio- labelled (1′,2′-³H)dUrd (specific radioactivity 27 Ci/mmol), (methyl-³H)dThd (specific radioactivity […]) and (5-³H)dCyd (specific radioactivity 20 Ci/mmol) into DNA of Molt/4F cells.
The incorporation of radiolabelled precursors into Molt/4F cellular DNA was measured in microtest III plates (96 wells) (Flacon) as previously described (J. Balzarini et al, Mol. Pharmacol. 23, 175-181 (1983)). Shortly, to each well of the microplate were added 10⁵ Molt/4F cells and 0.25 µCi of (1′,2′-³H)dUrd, (methyl³H)dThd or (5-³H)dCyd. The cells were allowed to proliferate for 20-24 hours at 37°C in a humidified CO₂-controlled atmosphere. At the end of this incubation period, the contents of the wells (200 µ1) were brought onto 25-mm glass-fibre filters (type A/E, Gelman Instrument Company, Ann Arbor, Mich., USA) and washed twice with cold phosphate-buffered saline, twice with cold 10% trichloroacetic acid (TCA), twice with cold 5% TCA, once with ethanol and once with ether. The filters were then assayed for radioactivity in a toluene-based scintillant.

[5] = target: T1, Molt/4F dThd kinase (Homo sapiens, UniProt P04183); assay: Inhibition of dThd kinase (Lineweaver-Burk); type: biochemical; conditions: for Ki: substrate (2-14C)dThd; for Type of inhibition: with respect to dThd; for inhibitory activity against dThd kinase (in words): at a concentration as high as 750 µM or 1000 µM
T1 construct: endogenous in cells; host or cells: Molt/4F cells (sonicated extract, 30-70% ammonium sulfate fraction, dialyzed)
T1 sequence (P04183 1-234): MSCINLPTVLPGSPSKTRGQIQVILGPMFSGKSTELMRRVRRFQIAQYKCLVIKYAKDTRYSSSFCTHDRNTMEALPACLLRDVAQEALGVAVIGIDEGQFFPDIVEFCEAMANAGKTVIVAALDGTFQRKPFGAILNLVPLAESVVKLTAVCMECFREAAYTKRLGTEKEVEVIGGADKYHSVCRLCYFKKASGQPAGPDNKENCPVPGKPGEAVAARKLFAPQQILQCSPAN
Procedure: ddUrd and the 3′-fluoro- and 3′-azido-substituted pyrimidine 2′,3′-dideoxynucleoside analogues were evaluated for their inhibitory effect against dThd and dCyd kinase.
dThd kinase and dCyd kinase were prepared from exponen tially growing Molt/4F cells, which were first washed (2x) with phosphate-buffered saline at 4° and then homogenized by sonication. The suspensions were clarified by centrifugation at 25,000-27,000 x g for 30 min. The 30-70% (NH₄)₂SO₄ precipitate of the supernatant was resuspended in buffer containing 10 uM potassium phosphate, pH 7.5, 10 mM β-mercaptoethanol and 0.1 M KCl, dialyzed against the same buffer, and used for the dThd kinase and the dCyd kinase assays. In these experiments, (2-¹⁴C)dThd and (U-¹⁴C)dCyd served as the radiolabelled substrates. The apparent Km and Ki values were derived from Lineweaver-Burk plots, using a linear regression analysis program.

[6] = 50% reduction of viable cells in non-infected MT4 cell cultures, 5 days
[7] = read-out: ID50 (1',2'-3H)dUrd incorporation
[8] = read-out: ID50 (5-3H)dCyd incorporation
[9] = read-out: ID50 (methyl-3H)dThd incorporation
[10] = Human immunodeficiency virus 1, MT4, 120 h

SMILES	EC50 [1]	HIV-induced cyto-pathogenicity S.I. [1]	HIV-induced cyto-pathogenicity CD50 [2, 6]	EC50 [3]	IC50 [4, 7]	IC50 [4, 8]	IC50 [4, 9]	Ki ([5]; dThd kinase)	Type of inhibition ([5]; dThd kinase)	Ki/Km ([5]; dThd kinase, Km 2.5 to 6.6 µM)	EC50 [1, 10]	HIV-induced cyto-pathogenicity CD50 [2]	Ki/Km [5]	inhibitory activity against dThd kinase (in words) [5]	fold more effective against HIV replication than the parent compound ddUrd [1]	fold more potent/effective against HIV than AzddUrd [1]	MSV-induced cyto-pathogenicity S.I. [3]	stimulatory effect on (5-3H)dCyd incorporation into DNA ([4]; at 200 µM)	stimulatory effect on (5-3H)dCyd incorporation into DNA ([4]; at 1000 µM)	EC50 ([1]; Human immunodeficiency virus 1, 120 h)
CCc1cn([C@H]2C[C@H](F)[C@@H](CO)O2)c(=O)[nH]c1=O [FddEtUrd, 3′-fluoro-2′,3′-dideoxy-5-ethyluridine]	330 µM	>1.9	>625 µM	> 400 µM	> 1000 µM	> 1000 µM	> 1000 µM	266 µM	competitive	72										
O=c1ccn([C@H]2CC[C@@H](CO)O2)c(=O)[nH]1 [ddUrd, 2′-3′-dideoxyuridine]	210 µM	> 3		> 400 µM	> 1000 µM	> 1000 µM	> 1000 µM	> 1000 µM			> 64 µM	>625 µM	>250	no inhibitory activity						
CCc1cn([C@H]2C[C@H](N=[N+]=[N-])[C@@H](CO)O2)c(=O)[nH]c1=O [AzddEtUrd, 3′-azido-2′,3′-dideoxy-5-ethyluridine]	64 µM	6.5	418 µM	> 200 µM	> 1000 µM	> 1000 µM	> 1000 µM	175 µM	competitive	28	> 64 µM									
O=c1ccn([C@H]2C[C@H](F)[C@@H](CO)O2)c(=O)[nH]1 [FddUrd, 3′-fluoro-2′,3′-dideoxyuridine]		400	16 µM	> 400 µM	16 µM	> 1000 µM	> 1000 µM	833 µM	competitive	171	0.04 µM				5000 fold	9 fold and 10 fold				
Nc1ccn([C@H]2CC[C@@H](CO)O2)c(=O)n1 [ddCyd, 2′,3′-Dideoxycytidine]		120	40 µM	25 µM	32 µM	> 1000 µM	753 µM				0.3 µM						>16	1.7 fold	2 fold	
CCc1cn([C@H]2CC[C@@H](CO)O2)c(=O)[nH]c1=O [ddEtUrd, 2′,3′-Dideoxy-5-ethyluridine]	> 625 µM		>625 µM	> 400 µM	> 1000 µM	> 1000 µM	> 1000 µM	> 750 µM		>200				no inhibitory activity						
Nc1ccn([C@H]2C[C@H](F)[C@@H](CO)O2)c(=O)n1 [FddCyd, 3′-fluoro-2′,3′-dideoxycytidine]		1.6	26 µM	284 µM	27.3 µM	> 1000 µM	> 1000 µM				16 µM						> 1.2	1.7 fold	2 fold	
[N-]=[N+]=N[C@H]1C[C@H](n2ccc(=O)[nH]c2=O)O[C@@H]1CO [AzddUrd, 3′-azido-2′,3′-dideoxyuridine]		677	244 µM	15 µM	172 µM	725 µM	> 1000 µM	224 µM	competitive				71		600 fold		>27			0.36 µM
